Reference: US20100099847A1 (Kyowa Hakko Bio Co., Ltd., priority 2006, published 2010)

How the values were obtained:
[1] = volume median diameter
Protocol: This is synonymous with volume median diameter, and it was measured using a laser diffraction and scattering particle diameter analyzer, the LMS-24 SK Laser Micron Sizer (Seishin Enterprise Co. Ltd.) and expressed as a cumulative 50% volume particle diameter.

[2] = width of approximately 300 crystals
Protocol: The crystals were observed and photographed using a VH-8000 digital microscope (Keyence Corporation). The width of approximately 300 crystals was measured and calculations performed.

Average particle diameter [1]	Average width [2]	SMILES
9 μm		N[C@@H](CCC(=O)N[C@@H](CS)C(=O)NCC(=O)O)C(=O)O [Commercial product A, glutathione]
	3 μm	N[C@@H](CCC(=O)N[C@@H](CS)C(=O)NCC(=O)O)C(=O)O [commercial product B, glutathione]
